The test deals with Kynurenine 3-monooxygenase (Homo sapiens, UniProt O15229). Put plainly: Inhibition of kynurenine monooxygenase (unknown origin) by MS rapidfire assay.

Broadly, the IC50 is the point on the concentration scale where inhibition reaches its midpoint.

Sequence of Kynurenine 3-monooxygenase (O15229 whole entry): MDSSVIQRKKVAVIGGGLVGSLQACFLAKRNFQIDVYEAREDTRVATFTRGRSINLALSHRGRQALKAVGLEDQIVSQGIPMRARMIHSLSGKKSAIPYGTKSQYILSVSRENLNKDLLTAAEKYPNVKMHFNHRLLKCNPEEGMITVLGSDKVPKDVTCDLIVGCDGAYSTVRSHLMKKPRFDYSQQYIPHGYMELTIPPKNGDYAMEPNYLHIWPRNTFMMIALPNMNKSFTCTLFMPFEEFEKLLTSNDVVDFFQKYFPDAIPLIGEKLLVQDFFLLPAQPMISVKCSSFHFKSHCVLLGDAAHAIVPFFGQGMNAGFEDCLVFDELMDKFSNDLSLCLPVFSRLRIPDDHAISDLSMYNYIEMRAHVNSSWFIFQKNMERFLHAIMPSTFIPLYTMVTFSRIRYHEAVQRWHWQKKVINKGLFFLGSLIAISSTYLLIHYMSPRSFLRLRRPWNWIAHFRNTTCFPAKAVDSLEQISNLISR

`C[C@@H](Oc1cc2oc(=O)n(CCC(=O)O)c2cc1Cl)c1cccnn1` showed an IC50 below 0.794 µM.

Regarding `Cn1ccnc1COc1cc2oc(=O)n(CCC(=O)O)c2cc1Cl`, the IC50 is below 0.794 µM.
